Data: patent US20090227619A1, “Harmine derivatives, intermediates used in their preparations, preparation processes and use therefo” (priority 2003, published 2009)
Read-outs that look alike come from different tables or passages of the source.

Columns and labels:
HepG2 = experiment: In vitro cytotoxicity, IC50 by MTT method, HepG2; type: cell-based, human; details: Homo sapiens
Outline: (§1)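 Cells in RPMI1640 with 10% FBS at 37° C, 5% CO2 were seeded at 10^5/ml and exposed to a compound concentration gradient for 48 h, at least three replicates, solvent controls.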

PLA-801 = experiment: In vitro cytotoxicity, IC50 by MTT method, PLA-801; type: cell-based
Outline: as §1

Bel-7402 = experiment: In vitro cytotoxicity, IC50 by MTT method, Bel-7402; type: cell-based; details: Homo sapiens, Bel-7402
Outline: as §1

BGC-823 = experiment: In vitro cytotoxicity, IC50 by MTT method, BGC-823; type: cell-based; details: Homo sapiens, BGC-823
Outline: as §1

Hela = experiment: In vitro cytotoxicity, IC50 by MTT method, Hela; type: cell-based; details: Homo sapiens
Outline: as §1

Lovo = experiment: In vitro cytotoxicity, IC50 by MTT method, Lovo; type: cell-based; details: Homo sapiens
Outline: as §1

NIH3T3 = experiment: In vitro cytotoxicity, IC50 by MTT method, NIH3T3; type: cell-based; details: Mus musculus
Outline: as §1

[1] = HepG2 cell strain, read-out: IC50 HepG2
[2] = PLA-801 cell strain, read-out: IC50 PLA-801
[3] = Bel7402 cell strain, read-out: IC50 Bel7402
[4] = BGC823 cell strain, read-out: IC50 BGC823
[5] = Hela cell strain, read-out: IC50 Hela
[6] = Lovo cell strain, read-out: IC50 Lovo
[7] = NIH3T3 cell strain, read-out: IC50 NIH3T3

SMILES	IC50 (HepG2; [1]) [µM]	IC50 (PLA-801; [2]) [µM]	IC50 (Bel-7402; [3]) [µM]	IC50 (BGC-823; [4]) [µM]	IC50 (Hela; [5]) [µM]	IC50 (Lovo; [6]) [µM]	IC50 (NIH3T3; [7]) [µM]	melting point [°C]	IC50 (HepG2; HepG2, MTT, read-out: IC50) [µM]	IC50 (PLA-801; PLA-801, MTT, read-out: IC50) [µM]	IC50 (Bel-7402; BeI7402, MTT, read-out: IC50) [µM]	IC50 (BGC-823; BGC823, MTT, read-out: IC50) [µM]	IC50 (Hela; Hela, MTT, read-out: IC50) [µM]	IC50 (Lovo; Lovo, MTT, read-out: IC50) [µM]	IC50 (NIH3T3; NIH3T3, MTT, read-out: IC50) [µM]
Cc1nc(C(=O)O)cc2c3ccccc3n(CCCc3ccccc3)c12 [Compound 65, 9-phenylpropyl-1-methyl-β-carboline-3-carboxylic acid]	140	210	560	270	220	50	110	186 to 188							
CCOC(=O)Nc1cc2c3ccccc3n(CC)c2cn1 [Compound 54, 3-[(ethoxycarbonyl)amino]-9-ethyl-β-carboline]	> 3000	> 3000	1680	> 3000	> 3000	> 3000	> 3000	217 to 218							
CCOC(=O)c1cc2c3ccccc3n(CCCc3ccccc3)c2cn1 [Compound 45, ethyl 9-phenylpropyl-β-carboline-3-carboxylate]	> 3000	> 3000	387	> 3000	> 3000	> 3000	> 3000	140 to 142							
CCCc1nc(C(=O)OCC)cc2c3ccccc3n(Cc3ccccc3)c12 [Compound 70, ethyl 9-benzyl-1-propyl-β-carboline-3-carboxylate]	790	160	1010	1010	810	1170	1570	158 to 159							
CCOC(=O)Nc1cc2c(cn1)[nH]c1ccccc12 [Compound 23, 3-[(ethoxycarbonyl)amino]-β-carboline]								221 to 223	> 3000	2160	> 3000	> 3000	> 3000	> 3000	> 3000
CCCCn1c2ccccc2c2cc(C(=O)OCC)ncc21 [Compound 32, ethyl 9-butyl-β-carboline-3-carboxylate]	480	70	780	760	490	170	60	76 to 77							
CCCc1nc(C(=O)O)cc2c3ccccc3n(CC)c12 [Compound 73, 1-propyl-9-ethyl-β-carboline-3-carboxylic acid]	540	710	570	390	420	260	390	189 to 191							
CCOC(=O)c1cc2c([nH]c3ccccc32)c(CC)n1 [Compound 12, ethyl 1-ethyl-β-carboline-3-carboxylate]								209 to 210	> 3000	> 3000	> 3000	> 3000	> 3000	1570	> 3000
CCn1c2ccccc2c2cc(C(=O)O)ncc21 [Compound 35, 9-ethyl-β-carboline-3-carboxylic acid]	180	210	230	160	180	60	140	201 to 202							
CCn1c2ccccc2c2cc(C(=O)OC)nc(-c3ccccc3)c21 [Compound 77, methyl 1-phenyl-9-ethyl-β-carboline-3-carboxylate]	> 3000	> 3000	380	> 3000	2660	70	140	169 to 170							
Cn1c2ccccc2c2cc(C(=O)O)ncc21 [Compound 34, 9-methyl-β-carboline-3-carboxylic acid]	150	270	330	130	90	90	130	267 to 269							
CCOC(=O)c1cc2c3ccccc3n(CC)c2c(C)n1 [Compound 57, ethyl 9-ethyl-1-methyl-β-carboline-3-carboxylate]	80	160	880	70	60	50	60	96 to 98							
Cc1nc(C(=O)O)cc2c3ccccc3n(C)c12 [Compound 62, 1,9-dimethyl-β-carboline-3-carboxylic acid]	1380	2350	1500	640	1110	440	630	262 to 264							
CCCc1nc(C(=O)OCC)cc2c3ccccc3n(CCCc3ccccc3)c12 [Compound 71, ethyl 9-phenylpropyl-1-propyl-β-carboline-3-carboxylate]	120	260	910	1320	60	60	190	92 to 93							
CCOC(=O)c1cc2c3ccccc3n(C)c2c(C)n1 [Compound 56, ethyl 1,9-dimethyl-β-carboline-3-carboxylate]	100	140	490	130	110	50	60	141 to 142							
CC(=O)COc1cc2c(cn1)[nH]c1ccccc12 [Compound 25, 3-acetylmethoxy-β-carboline]								131 to 132	1130	780	590	640	780	250	310
CCn1c2ccccc2c2cc(C(=O)O)nc(C)c21 [Compound 63, 9-ethyl-1-methyl-β-carboline-3-carboxylic acid]	2800	2330	1820	1660	970	590	710	243 to 245							
CCNC1(C(N)=O)C=C2C(=Nc3ccccc32)C=N1 (stereo not drawn) [Compound 19, 3-ethylamino-β-carboline-3-formamide]								233 to 236	80	140	160	80	90	100	200
COC(=O)Nc1cc2c(cn1)[nH]c1ccccc12 [Compound 22, 3-[(methoxycarbonyl)amino]-β-carboline]								180 to 182	230	200	130	210	170	160	320
